# Reference: patent US20260216108A1, “PHARMACEUTICAL COMPOSITION CONTAINING A MITOPHAGY INDUCER” (HANGZHOU PHECDAMED CO., LTD., priority 2023, published 2026)
# Test: Compatibility test of API and auxiliary materials: relevant substances (impurities) by HPLC
# Type: physicochemical
# Details: opened
# Experimental: 4. Using HPLC method to detect the content of the sample and relevant substances.
# The parameters of the HPLC method for the detection of the content and relevant substances are detailed in Table 2 below.
# Placing the samples under experimental conditions of high temperature (60° C.), high humidity (92.5% RH), acceleration (40° C./75% RH) and illumination (visible light 5500 Lux±500 Lux, near ultraviolet light 85 μw/cm2), […] Submitting the samples for relevant indicator testing (test items include appearance, hygroscopic weight gain, content and relevant substances), and comparing the test results with the control samples (raw material).
smiles,measurement,setting,value
O=C(O)C[S+]([O-])c1cc(NS(=O)(=O)c2ccc(Br)cc2)c2ccccc2c1O (centres unmarked) [API],% Impurities RRT0.37,"40° C./75% RH, 0 d",<0.05%
same,% Impurities RRT0.46,"40° C./75% RH, 0 d",<0.05%
same,% Impurities RRT0.89,"40° C./75% RH, 0 d",0.08%
same,% Impurities RRT1.10,"40° C./75% RH, 0 d",<0.05%
same,% Impurities RRT1.16,"40° C./75% RH, 0 d",0.88%
same,% Impurities RRT1.20,"40° C./75% RH, 0 d",0.09%
same,% Impurities RRT1.24,"40° C./75% RH, 0 d",<0.05%
same,% Impurities RRT1.29,"40° C./75% RH, 0 d",0.14%
same,% Impurities RRT1.33,"40° C./75% RH, 0 d",0.10%
same,% Impurities RRT1.37,"40° C./75% RH, 0 d",0.07%
same,% Impurities RRT1.41,"40° C./75% RH, 0 d",<0.05%
same,% Impurities RRT1.43,"40° C./75% RH, 0 d",<0.05%
same,% Impurities RRT1.73,"40° C./75% RH, 0 d",<0.05%
same,% Impurities RRT1.74,"40° C./75% RH, 0 d",0.05%
same,% Impurities Total,"40° C./75% RH, 0 d",1.41%
same,% Impurities RRT0.37,"40° C./75% RH, 10 d",<0.05%
same,% Impurities RRT0.46,"40° C./75% RH, 10 d",0.11%
same,% Impurities RRT0.89,"40° C./75% RH, 10 d",0.06%
same,% Impurities RRT1.10,"40° C./75% RH, 10 d",<0.05%
same,% Impurities RRT1.16,"40° C./75% RH, 10 d",1.23%
same,% Impurities RRT1.20,"40° C./75% RH, 10 d",0.06%
same,% Impurities RRT1.24,"40° C./75% RH, 10 d",<0.05%
same,% Impurities RRT1.29,"40° C./75% RH, 10 d",0.08%
same,% Impurities RRT1.33,"40° C./75% RH, 10 d",0.07%
same,% Impurities RRT1.37,"40° C./75% RH, 10 d",0.05%
same,% Impurities RRT1.41,"40° C./75% RH, 10 d",0.09%
same,% Impurities RRT1.43,"40° C./75% RH, 10 d",0.07%
same,% Impurities RRT1.54,"40° C./75% RH, 10 d",0.06%
same,% Impurities RRT1.63,"40° C./75% RH, 10 d",0.21%
same,% Impurities RRT1.65/1.70,"40° C./75% RH, 10 d",<0.05%
same,% Impurities RRT1.73,"40° C./75% RH, 10 d",0.59%
same,% Impurities RRT1.74,"40° C./75% RH, 10 d",0.06%
same,% Impurities Total,"40° C./75% RH, 10 d",2.74%
same,% Impurities RRT0.46,"40° C./75% RH, 30 d",0.20%
same,% Impurities RRT0.89,"40° C./75% RH, 30 d",0.08%
same,% Impurities RRT1.10,"40° C./75% RH, 30 d",<0.05%
same,% Impurities RRT1.16,"40° C./75% RH, 30 d",1.18%
same,% Impurities RRT1.20,"40° C./75% RH, 30 d",0.05%
same,% Impurities RRT1.24,"40° C./75% RH, 30 d",<0.05%
same,% Impurities RRT1.29,"40° C./75% RH, 30 d",0.14%
same,% Impurities RRT1.33,"40° C./75% RH, 30 d",0.07%
same,% Impurities RRT1.37,"40° C./75% RH, 30 d",0.08%
same,% Impurities RRT1.41,"40° C./75% RH, 30 d",0.08%
same,% Impurities RRT1.43,"40° C./75% RH, 30 d",0.07%
same,% Impurities RRT1.54,"40° C./75% RH, 30 d",<0.05%
same,% Impurities RRT1.63,"40° C./75% RH, 30 d",0.24%
same,% Impurities RRT1.65/1.70,"40° C./75% RH, 30 d",<0.05%
same,% Impurities RRT1.73,"40° C./75% RH, 30 d",0.74%
same,% Impurities RRT1.74,"40° C./75% RH, 30 d",0.08%
same,% Impurities Total,"40° C./75% RH, 30 d",3.01%
same,% Impurities RRT0.46,"60° C., 0 d",<0.05%
same,% Impurities RRT0.89,"60° C., 0 d",0.08%
same,% Impurities RRT1.16,"60° C., 0 d",0.88%
same,% Impurities RRT1.20,"60° C., 0 d",0.09%
same,% Impurities RRT1.29,"60° C., 0 d",0.14%
same,% Impurities RRT1.33,"60° C., 0 d",0.10%
same,% Impurities RRT1.37,"60° C., 0 d",0.07%
same,% Impurities RRT1.41,"60° C., 0 d",<0.05%
same,% Impurities RRT1.73,"60° C., 0 d",<0.05%
same,% Impurities RRT1.74,"60° C., 0 d",0.05%
same,% Impurities Total,"60° C., 0 d",1.41%
same,% Impurities RRT0.46,"60° C., 10 d",<0.05%
same,% Impurities RRT0.89,"60° C., 10 d",0.08%
same,% Impurities RRT1.16,"60° C., 10 d",0.87%
same,% Impurities RRT1.20,"60° C., 10 d",0.07%
same,% Impurities RRT1.29,"60° C., 10 d",0.17%
same,% Impurities RRT1.33,"60° C., 10 d",0.08%
same,% Impurities RRT1.37,"60° C., 10 d",0.06%
same,% Impurities RRT1.41,"60° C., 10 d",<0.05%
same,% Impurities RRT1.73,"60° C., 10 d",<0.05%
same,% Impurities RRT1.74,"60° C., 10 d",0.07%
same,% Impurities Total,"60° C., 10 d",1.40%
same,% Impurities RRT0.46,"60° C., 30 d",<0.05%
same,% Impurities RRT0.89,"60° C., 30 d",0.07%
same,% Impurities RRT1.16,"60° C., 30 d",0.87%
same,% Impurities RRT1.20,"60° C., 30 d",0.06%
same,% Impurities RRT1.29,"60° C., 30 d",0.18%
same,% Impurities RRT1.33,"60° C., 30 d",0.07%
same,% Impurities RRT1.37,"60° C., 30 d",0.06%
same,% Impurities RRT1.41,"60° C., 30 d",<0.05%
